Source: the NIST ThermoML archive (doi:10.1021/je7005133)

c1ccc2c(c1)Cc1ccccc1-2 [fluorene]
Crystal
Settings	vapor or sublimation pressure [kPa]
298 K	6.61e-05
298.1 K	6.52e-05
299.8 K	8.4e-05
301.4 K	9.88e-05
304.3 K	0.000141
306.6 K	0.000178
306.9 K	0.000195
308.1 K	0.000218
309.8 K	0.000261
311.2 K	0.000301
314.3 K	0.000414
316 K	0.00046
316.5 K	0.000531
317.3 K	0.000581
317.6 K	0.000613
320.3 K	0.00076
324.4 K	0.00127

c1cc2ccc3cccc4ccc(c1)c2c34 [pyrene]
Crystal
Settings	vapor or sublimation pressure [kPa]
322 K	8.95e-06
337.1 K	5.31e-05
342.1 K	9.43e-05
347.1 K	0.000147
352.3 K	0.000227
356.8 K	0.000339
362.1 K	0.000599
372 K	0.0013
381.4 K	0.00281

c1ccc2c(c1)c1ccccc1c1ccccc21 [triphenylene]
Crystal
Settings	vapor or sublimation pressure [kPa]
368.4 K	1.7e-05
377.4 K	4.48e-05
377.7 K	4.51e-05
378 K	4.64e-05
386.7 K	0.000116
390.7 K	0.000178
394.9 K	0.000264
395 K	0.000258
399.1 K	0.000375

C1=Cc2cccc3cccc1c23 [acenaphthylene]
Crystal
Settings	vapor or sublimation pressure [kPa]
297.4 K	0.000488
297.6 K	0.000531
304.6 K	0.00105
304.7 K	0.00108
306.7 K	0.00114
311.9 K	0.00182
314.8 K	0.00345
318.5 K	0.00345
318.6 K	0.00347
319.7 K	0.00414

c1ccc2c(c1)ccc1c3ccccc3ccc21 [chrysene]
Crystal 2
Settings	vapor or sublimation pressure [kPa]
372.4 K	1.74e-05
380.7 K	3.72e-05
385.2 K	5.37e-05
389.2 K	7.61e-05
389.4 K	7.5e-05
393.6 K	0.000103
394.2 K	0.000136
396.1 K	0.000148
398.1 K	0.000168
398.2 K	0.000158
400 K	0.000202
400.4 K	0.000212
402.8 K	0.000263
403 K	0.000254
404.8 K	0.000277
404.9 K	0.000292
405.1 K	0.000306
406.8 K	0.000336
408.6 K	0.000379

c1ccc2c(c1)cc1ccc3cccc4ccc2c1c34 [benzo[a]pyrene]
Crystal
Settings	vapor or sublimation pressure [kPa]
392.3 K	7.31e-05
393.5 K	7.96e-05
397.8 K	0.000129
400.8 K	0.000167
402.3 K	0.00018
405.2 K	0.000217
406.6 K	0.000273
411.5 K	0.000394
411.8 K	0.000418
415.1 K	0.000494
415.5 K	0.000537
419 K	0.000697
419.7 K	0.000733
421.2 K	0.000785
423.8 K	0.00098
423.9 K	0.00102

c1ccc2cc3ccccc3cc2c1 [anthracene]
Crystal
Settings	vapor or sublimation pressure [kPa]
322.2 K	1.6e-05
327 K	2.6e-05
329.1 K	3.33e-05
333.4 K	4.91e-05
336.3 K	7.2e-05
338.7 K	9.43e-05
340.4 K	0.00011
341.2 K	0.000119
342.3 K	0.000131
343.6 K	0.000141
344.2 K	0.000164
346.4 K	0.000192
348.2 K	0.00026

c1cc2c3c(cccc3c1)CC2 [acenaphthene]
Crystal
Settings	vapor or sublimation pressure [kPa]
297.6 K	0.00029
299.7 K	0.000362
300.5 K	0.000413
301.6 K	0.00044
302.8 K	0.000508
306.1 K	0.000693
310.7 K	0.00112
315.6 K	0.0018

c1cc2cccc3c4cccc5cccc(c(c1)c23)c54 [perylene]
Crystal
Settings	vapor or sublimation pressure [kPa]
390 K	1.37e-05
390.5 K	1.47e-05
391.2 K	1.49e-05
393.7 K	2.15e-05
397.7 K	3.15e-05
398.3 K	3.03e-05
402.2 K	4.58e-05
402.8 K	4.76e-05
403.7 K	5.19e-05
405.7 K	6.67e-05
406.6 K	7.2e-05
406.8 K	7.03e-05
410.5 K	0.0001
411.3 K	0.000102
412.7 K	0.000132
413.4 K	0.000142
414.4 K	0.000148
418.4 K	0.000196
428.6 K	0.000443
432.4 K	0.000606

c1ccc2c(c1)-c1cccc3cccc-2c13 [fluoranthene]
Crystal
Settings	vapor or sublimation pressure [kPa]
326.8 K	3.96e-05
326.9 K	4.11e-05
331 K	6.16e-05
331.8 K	6.32e-05
336.7 K	0.000117
338.7 K	0.000129
338.8 K	0.000131
338.9 K	0.000144
340.2 K	0.000154
342.5 K	0.000206
343.9 K	0.000248
345.3 K	0.000258
348 K	0.00033
348.5 K	0.000341
350.9 K	0.000463
354.1 K	0.00058
359.2 K	0.00105
